Reference: article PMC2932999 (Journal of Medicinal Chemistry, 2010)

What was measured:
[1] = target: D197 Perth NA (B/Perth/211/2001 wild type neuraminidase) (Influenza B virus, UniProt Q3S340); type: biochemical; settings: read-out: Km for MUNANA
[2] = target: D197 Gifu NA (B/Gifu/11/2005 wild type neuraminidase) (Influenza B virus, UniProt Q38G88); type: biochemical; settings: read-out: Km for MUNANA
[3] = in vivo; cited from earlier work
[4] = system: wild type D197 NAs (B/Perth and B/Gifu); type: biochemical, influenza B virus
[5] = target: recombinant B/Perth/211/2001 wild type D197 neuraminidase heads (influenza B virus B/Perth/211/2001); assay: negative-stain electron microscopy

| Compound | association of inhibitor with NA [4] | dissociation of inhibitor from NA [4] | further results |
| --- | --- | --- | --- |
| CC(=O)N[C@H]1[C@H]([C@H](O)[C@H](O)CO)OC(Oc2ccc3c(C)cc(=O)oc3c2)(C(=O)O)C[C@@H]1O (some centres unmarked) [MUNANA, 4-methylumbelliferyl-N-acetylneuraminic acid] |  |  | Km [1]: 12.4 ± 4.2 µM; Km [2]: 10.5 ± 1.4 µM |
| CC(=O)N[C@H]1[C@H]([C@H](O)[C@H](O)CO)OC(C(=O)O)=C[C@@H]1NC(=N)N [compound 1, zanamivir] | slow association | slow dissociation | levels delivered to the upper respiratory tract [3]: up to 10 000 nmol/L |
| CCC(CC)[C@H](NC(C)=O)[C@@H]1[C@H](O)[C@@H](C(=O)O)C[C@H]1NC(=N)N [compound 3, peramivir] | slow association | slow dissociation |  |
| recombinant B/Perth/211/2001 wild type D197 neuraminidase heads (enzyme) |  |  | stoichiometry N [5]: 4 |
